Test results: publication PMC9520775, “Everolimus pharmacokinetics and exposure-response relationship in Japanese patients with advanced breast cancer” (Frontiers in Pharmacology, 2022)

Experiment: Everolimus whole blood concentrations and Bayesian estimation of PK parameters and trough concentrations
Type: in vivo, human
Conditions: for trough concentration estimate at grade 2 stomatitis: person
Procedure: Whole blood samples for the everolimus assay were collected at least two weeks after initiation of treatment or after the last everolimus dose change. Blood samples were collected at pre-dose, 1, 4, and 8 h after the everolimus dose. Blood everolimus concentrations were measured using a latex agglutination turbidimetric immunoassay ([Mori et al., 2014]) for the samples collected during November 2015 to September 2016 (n = 10) and using electrochemiluminescence immunoassay ([Blackburn et al., 1991]) for the samples collected during October 2016 to November 2018 (n = 8). Since these two techniques are highly correlated, the measured results were considered to be the same (r = 0.972) ([Sasano et al., 2016]).
PK parameters such as clearance (CL) and volume of distribution were estimated using Bayesian analysis in MW/Pharm++ software (Mediware, Prague, Czech Republic) ([Fuchs et al., 2013]). […] Ka was fixed for all analyses due to the limited data to characterize the absorption. The PK parameters were allometrically scaled to body weight to account for the effect of body size differences according to the following formula: Pi=Ppop×(BWi/BWstandard)^power where Pi was the estimated PK parameter for individual i, Ppop was the typical population value of the PK parameters. BWstandard was the standard body weight of 70 kg. The power coefficient was 0.75 for CL and intercompartment clearance and 1 for volume of distribution of the central compartment and the peripheral compartment.
Everolimus concentrations at steady-state or at the time of occurrence of dose-limiting toxicity was estimated using the Bayesian-estimated PK parameters of the individual patient.

[1] = five patients who did not experience DLTs

In the case of `CO[C@H]1C[C@@H]2CC[C@@H](C)[C@@](O)(O2)C(=O)C(=O)N2CCCC[C@H]2C(=O)O[C@H]([C@H](C)C[C@@H]2CC[C@@H](OCCO)[C@H](OC)C2)CC(=O)[C@H](C)/C=C(\C)[C@@H](O)[C@@H](OC)C(=O)[C@H](C)C[C@H](C)/C=C/C=C/C=C/1C` [everolimus], the “steady-state trough concentrations at the starting dose, range” value (5 mg starting dose, six patients, approximated with Bayesian-estimated PK parameters) was 11.3 to 29.6 ng/mL, the “estimated steady-state trough concentration when the dose was reduced and maintained without DLT, range” value (13 patients who had DLTs) was 5.7 to 24.2 ng/mL and the “median estimated steady-state trough concentration when the dose was reduced and maintained without DLT” value (13 patients who had DLTs) was 8.3 ng/mL. The “estimated trough concentration at the time of the DLTs, range” value (13 patients with DLTs) was 11.3 to 64.6 ng/mL, the “median estimated trough concentration at the time of the DLTs” value (13 patients with DLTs) was 19.0 ng/mL and the “CL, Mean” value (Bayesian estimate, steady state, Japanese breast cancer patients n = 18, scaled to 70 kg) was 11.7 L/h/70 kg. For the same molecule, the “estimated trough concentration after dose reduction” value (all patients except in one patient) was “higher than 6 ng/ml”, the “steady-state trough concentration after restarting the treatment” value (case Figure 3A, 5 mg once daily, no DLTs) was 8.4 ng/mL and the “trough concentration estimate at grade 2 stomatitis” value (case Figure 3A, 10 mg once daily, two weeks after initiation) was 16.8 ng/mL. For the same molecule, the “steady-state trough concentration after everolimus dose reduction” value (case Figure 3B, 5 mg every alternate day) was 9.2 ng/mL, the “trough concentration estimate at grade 2 stomatitis” value (case Figure 3B, 5 mg once daily, day 90) was 29.6 ng/mL and the “trough concentration, median” value [1] was 19.0 ng/mL. The “trough concentration, range” value [1] was 12.8 to 33.2 ng/mL, the “clearance (CL), range” value (inter-individual range, n = 18) was 5.1–21.3 L/h/70 kg and the “volume of distribution of the central compartment, range” value (inter-individual range, n = 18) was 9.9–103.6 L/70 kg. The “dose-adjusted trough concentrations, range” value (whole blood, steady state, doses 10, 5, 2.5 mg/day or 5 mg every alternate day) was 1.3 to 6.5 ng/mL/mg/day.
